In US20190284129A1, “LIPID COMPOUNDS AND COMPOSITIONS AND THEIR OPTHALMIC USE” (BIOZEP AS, priority 2015, published 2019):
pEC50: −log10 of the molar value.

Target: T1, human PPARalpha receptor (Homo sapiens, UniProt Q07869)
T1 construct: expressed in transfected cells; host or cells: HEK293 (DSMZ ACC 305)
T1 sequence (Q07869 239-466 limits assumed): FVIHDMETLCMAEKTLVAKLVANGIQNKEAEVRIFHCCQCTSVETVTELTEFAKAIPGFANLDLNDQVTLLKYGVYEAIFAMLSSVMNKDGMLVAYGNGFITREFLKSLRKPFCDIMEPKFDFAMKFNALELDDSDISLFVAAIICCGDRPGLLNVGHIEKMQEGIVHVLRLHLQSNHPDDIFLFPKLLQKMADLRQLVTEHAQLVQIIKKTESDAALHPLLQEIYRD
Test: cellular GAL4 reporter gene assay (M1H) in HEK293 cells, PPARalpha
Assay type: cell-based
Settings: agonist mode
Procedure: The compounds BIZ-102 (Example 2), BIZ-103 (Example 5) and BIZ-106 were tested at the human PPARalpha receptor in a cellular GAL4 Reporter gene assay. The assay was run in agonist and antagonist mode to detect agonistic as well as antagonistic activities of the tested compounds.
Performance of the GAL4 cellular reporter assay:
Day 1: Cells were seeded in 96 well plates in plating medium (MEM with serum), incubation overnight at 37° C., 5% CO2.
Day 2: Removal of plating medium
Addition of PEI-based transfection agent
Incubation for 4-6 hours at 37° C., 5% CO2
Addition of assay medium (MEM with serum)
Addition of compounds (dilution series was generated in MEM with serum)
Incubation overnight at 37° C., 5% CO2
Day 3: Removal of assay medium (16-20 hours after compound addition)
Addition of Passive Lysis Buffer (Promega)
15 mins incubation at room temperature
Addition of luciferase buffers and measurement in a dual-flash procedure
The assays were done in HEK293 cells (DSMZ ACC 305). The plasmids used in the GAL4 assay system were derivatives of Stratagene's M2H plasmids: the reporter plasmid pFR-Luc (containing a synthetic promoter with five tandem repeats of the yeast GAL4 binding sites that control expression of the Photinus pyralis (American firefly) luciferase gene), and pCMV-BD (for fusions of nuclear receptor ligand binding domains to the DNA-binding domain of the yeast protein GAL4). In order to improve experimental accuracy, a second reporter—Renilla reniformis luciferase, driven by a constitutive promoter—was included as an internal control. Using the control reporter (Renilla Luciferase) allowed corrections for variations in experimental handling, e.g. transfection efficacy, cell viability, pipetting errors, cell lysis efficiency and assay efficiency.
Primary read out of the assays was loaded into PhAST (Phenex Assay and Screening Tool) and checked for assay quality (generation of SB and Zprime values). […] Within PhAST there are two measured and one calculated data layers:
LAYER1 (measured)—contains the activity values of the firefly luciferase activities and is a direct measure for modulation of the cofactor binding properties of the Nuclear Receptors by the tested compounds.
LAYER2 (measured)—contains the activity values of the renilla luciferase activities and is used as normalisation layer. As the renilla luciferase is expressed under control of the constitutively active CMV promoter, moderate well-to-well differences can be used to correct for variations in experimental handling.
LAYER3 (calculated)—is calculated according to the following equation: […]
1000*Firefly luciferase value/Renilla luciferase value
These normalised values are, as well as LAYER1, a measure for the modulation of the cofactor binding properties of the nuclear receptors by the tested compounds.

- Efficacy vs. Fenofibric Acid (HEK293): 45%
- Efficacy vs. GW7647 (HEK293): 150%
- pEC50 (HEK293, GAL4 reporter): 6.46
Structure (SMILES): CCCCC/C=C\C/C=C\C/C=C\C/C=C\CCC(CC)C(=O)O (stereo not drawn) [BIZ-102, (All-Z) 2-ethyl-5,8,11,14-eicosatetraenoic Acid]
